What was measured:
[1] = molecular target: PancAce (PANcACe), PanZ(R69)-GA-cpGFP-GA-(E70)PanZ, SEQ ID NO: 5; E. coli PanZ with cpGFP insertion (Escherichia coli, UniProt P37613, INS69[…]); assay: Fluorescence titration of PancAce with acetyl-CoA, CoA and propionyl-CoA; assay type: binding
Description: Acetyl-CoA and CoA Titration and Spectrum Scans. Assays were done in 384 well plates with […] final well volume. All sensors and control proteins were diluted to 6 μM in protein storage buffer. Acetyl-CoA and CoA were dissolved in water at a concentration of 60 μM then serial diluted to 30 μM, 15 μM, 6 μM, 3 μM, 0.6 μM, 0.06 μM, and 0.006 μM. Wells were set up in triplicate with 14 μL water, 6 μL assay buffer, and 5 μL sensor. 5 μL of an acetyl-CoA stock or water were added to 1 μM sensor before reading. For Titration curves, plates were read at excitation 485 nm and emission 514 nm. For excitation scans plates were excited from 400 nm to 500 nm at 1 nm increments and emissions were read at […]. For emission scans plates were excited at 485 nm, 427 nm, or 405 nm and emissions were read from 500 nm to 575 nm in 1 nm increments. Triplicates were averaged and plotted for scans and percent difference between no acetyl-CoA and acetyl-CoA wells were calculated for titrations.
Titrations of acetyl-CoA and CoA with PANcACe and cpGFP alone were performed (FIG. 9). […] Since the insertion site of cpGFP is very close to the acetyl-CoA binding site, this effect was not surprising. […] Further, the selectivity of PANcACe for short-chain acyl-CoAs was tested (FIG. 11). […] A propionyl-CoA titration confirmed this apparent affinity difference (FIG. 12). Since saturation was not achieved up to 10 mM propionyl-CoA, it was assumed that the same maximal sensor response would be achieved for propionyl-CoA as for acetyl-CoA.

[2] = molecular target: PancAce (PANcACe), PanZ(R69)-GA-cpGFP-GA-(E70)PanZ, SEQ ID NO: 5 (Escherichia coli, UniProt P37613, INS69[…]); assay: Acyl-CoA screen, fluorescence response to 1 mM acyl-CoA; assay type: biochemical, E. coli; conditions: FIG. 11, n=3
Description: Acyl-CoA Screen. Assays were done in 384 well plates with 30 μL final volume. All sensors and control proteins were diluted to 6 μM in protein storage buffer. CoA, acetyl-CoA, propionyl-CoA, butyryl-CoA, malonyl-CoA, and succinyl-CoA were dissolved in water at a concentration of 6 mM. Wells were set up in triplicate with 14 μL water, 6 μL assay buffer, and 5 μL sensor. 5 μL of an acyl-CoA or water were added to 1 μM sensor before reading. Plates were read at excitation 485 nm and emission 514 nm. Triplicates were averaged and percent difference between acyl-CoAs and water were calculated.

[3] = molecular target: E. coli PanZ (PanZ-CFP fusion protein), SEQ ID NO: 1 (Escherichia coli, UniProt P37613); assay: Surface plasmon resonance binding to PanZ-CFP; conditions: SPR
Description: Surface Plasmon Resonance. Acetyl-CoA and CoA binding to PanZ-CFP were analyzed via SPR using a MASS-1 instrument (Bruker Daltonics, Billerica, MA). Independent experiments were performed using freshly prepared PanZ-CFP, Acetyl-CoA, and CoA stocks on two separate days (surfaces 1 & 2). HLC200 μM sensor surfaces (Xantec Bioanalytics, Düsseldorf, Germany) were activated with EDC/NHS, and then 250 nM PanZ-CFP ligand was captured on the sensor “Spot B” at 10 μL/minute at 2020 RU (surface 1) and 2360 RU (surface 2). The surface was then blocked with […]. The experimental running buffer was 50 mM Tris pH 7.5, 150 mM NaCl, 0.05% Tween-20 for surface 1 replicates and 200 mM Tris pH 7.5, 150 mM NaCl, 0.05% Tween-20 for surface 2 replicates. Experiments were performed at room temperature with a flowrate of 30 μL/minute. A three-fold dilution series (81-0.33 μM) with 1 minute association and 2 minutes dissociation was run in multiple replicates (at least two for each analyte on each surface). Data were double blanked by subtracting the blank in-line control surface (Spot A) and buffer reference injections. Kinetic binding data were globally fit to the Langmuir model for 1:1 binding for each replicate of concentration series using the Sierra Analyser software (version 3.4.1, Bruker Daltonics, Billerica, MA). […]

[4] = molecular target: PanZ(R69)-GA-cpGFP-GA-(E70)PanZ (PancAce), SEQ ID NO: 5 (Escherichia coli, UniProt P37613, INS69[…]); assay: Linker screen, fluorescence response to 1 mM acetyl-CoA; assay type: biochemical, E. coli
Description: Linker Length Screen. cpGFP (HTSD1.00) was inserted into 6× histidine tagged PanZ (HTSD1.10) after amino acid R69 with all 16 possible combinations of N- and C-terminal linkers with amino acid sequences GAS, GA, G, no linker using NEBuilder® HiFi DNA Assembly Master Mix (NEB) (HTSD8.00-8.15).
Position and Linker Screen. Assays were done in 96 well plates with 100 μL final well volumes. All sensors and control proteins were diluted to 10 μM in protein storage buffer (50 mM Tris pH 7.5, 150 mM NaCl, 10% glycerol). Acetyl-CoA was dissolved in water at a concentration of 10 mM. A 5× assay buffer was used ([…] pH 7.5, 750 mM NaCl). Wells were set up in triplicate with 60 μL water, 20 μL reaction buffer, and 10 μL sensor. Then either 10 μL of water or 10 μL of acetyl-CoA were added to 1 μM sensor before reading. […] Triplicates were averaged and percent difference between no acetyl-CoA and acetyl-CoA wells were calculated.

[5] = system: E. coli (Rosetta DE3 cells)
Description: Plate Reader Refeeding. All assays were done with the BioTek Synergy™ Plate Reader with injectors. All sensors and control proteins were expressed in Rosetta (DE3) cells. PanZ was used as a non-fluorescent control, cpGFP was used as a fluorescent control, and PANcACe was the experimental. Reads were done with excitation 405 nm and 485 nm and emission at 514 nm. Cultures were grown in LB with kanamycin overnight at 37° C. then used to induce new cultures. Cells were grown at 37° C. to an OD600 of 0.6 then induced with 0.5 mM IPTG and grown overnight at 18° C. Cultures were split into 2, 600 μL aliquots and spun at 4000 rpm for 5 minutes.
Glucose Starvation and Refeeding. The supernatant was discarded and pellets were resuspended in 600 μL either starvation buffer (100 mM NaPO4, 2 mM MgCl2, 15 mM (NH4)2SO4+0 mM glucose) or refed buffer (100 mM NaPO4, 2 mM MgCl2, 15 mM (NH4)2SO4+28 mM glucose). 85 μL was added to 3 wells of a 96 well plate for each sample. […] Plates were read for 10 minutes every 30 seconds with 10 seconds of shaking between reads. […] Plates were read for 60 minutes every 30 seconds with 10 seconds of shaking between reads.
2-Deoxyglucose Starvation and Refeeding. […] Plates were read for 10 minutes every 30 seconds with 10 seconds of shaking between reads. […] Plates were read for 60 minutes every 30 seconds with 10 seconds of shaking between reads.

CC(C)(COP(=O)(O)OP(=O)(O)OC[C@H]1O[C@@H](n2cnc3c(N)ncnc32)[C@H](O)[C@@H]1OP(=O)(O)O)[C@@H](O)C(=O)NCCC(=O)NCCS [CoA, coenzyme A]
sensor response ([1]; FIG. 9, acetyl-CoA or CoA titration): the sensor responds only to acetyl-CoA and not CoA | CoA concentration required to elicit the same sensor response as 100 μM acetyl-CoA ([1]; interpolation, saturation not achieved for CoA): 10 mM

CCC(=O)SCCNC(=O)CCNC(=O)[C@H](O)C(C)(C)COP(=O)(O)OP(=O)(O)OC[C@H]1O[C@@H](n2cnc3c(N)ncnc32)[C@H](O)[C@@H]1OP(=O)(O)O [propionyl-CoA]
fold lower affinity for propionyl-CoA compared to acetyl-CoA ([1]; from fitted Kd values): 2.4 fold | Kd (estimated) ([1]; saturation not achieved up to 10 mM, fit assumes same maximal sensor response as for acetyl-CoA): 626000 ± 75000 nM | sensor fluorescence response [2]: some response

CC(=O)SCCNC(=O)CCNC(=O)[C@H](O)C(C)(C)COP(=O)(O)OP(=O)(O)OC[C@H]1O[C@@H](n2cnc3c(N)ncnc32)[C@H](O)[C@@H]1OP(=O)(O)O [acetyl-CoA, acetyl coenzyme A]
fold higher affinity for acetyl-CoA versus CoA [3]: 7 fold | Kd ([3]; 1:1 Langmuir fit, average ± standard error, room temperature, pH 7.5): 1700 ± 200 nM | lower end of detectable acetyl-CoA concentration range ([1]; FIG. 9): about 10 UM | upper end of detectable acetyl-CoA concentration range ([1]; FIG. 9): about 2 mM | fold higher affinity for acetyl-CoA compared to propionyl-CoA ([1]; FIG. 12, λex=485, λem=514 nm, n=3-5): approximately 2.5 fold | fold lower affinity of PANcACe for acetyl-CoA compared to PanZ ([1]; fluorescence Kd,app vs SPR Kd): about 150 fold | maximum fluorescence response at saturating acetyl-CoA ([1]; λex=485, λem=514 nm): ~2 fold | fold-change in fluorescence emission ((F1−F0)/F0) ([4]; 1 mM acetyl-CoA, N-GA/C-GA linkers, λex=485, λem=514 nm): about 0.6 fold | response of GA/GA linker sensor relative to original AS/AS linker ([4]; acetyl-CoA, FIG. 6): about 2.5 fold

O=CC[C@@H](O)[C@H](O)[C@H](O)CO [2-DG, 2-deoxyglucose]
recovery of acetyl-CoA levels (sensor response) upon refeeding ([5]; PancAce-expressing cells deprived of glucose 3 hours with 28 mM 2-DG, refed 28 mM glucose, monitored 1 hour): lower recovery of acetyl-CoA levels upon refeeding

CC(=O)O [acetate]
duration of increase in PancAce signal upon feeding of starved cells ([5]; 280 μM acetate, pre-starved PancAce-expressing cells): about 30 minutes
